According to US20210115521A1, “METHOD FOR INHIBITING TUMOR PROGRESSION OR DETERMINING TUMOR PROGRESSION STATE IN GASTRIC CANCER” (National Tsing Hua University, priority 2019, published 2021):
Residues, ends and D or L forms follow the SMILES beside them. *: point of attachment. Cbz = O=C(OCc1ccccc1)*

Assays:
MKN28 cells = test: Zebrafish xenotransplantation migration assay, MKN28; assay type: in vivo; settings: MKN28-injected embryos, immersion in 1 μM at 1 dpi, read at 3 dpi
Procedure: The Tg (fli1: EGFP) zebrafish transgenic strain was purchased from ZIRC (Oregon, USA). […] At two-day post-fertilization, the embryos were dechorionated and subsequently anesthetized with tricaine (0.04 mg/ml). MKN28 or MKN45 cells were labeled with either CFSE or CM-DiI. Two hundred labeled cells (4.6 nl) were injected into the yolk of two-day old embryo using a Nanoject II Auto-Nanoliter Injector (Drummond Science, Broomall, Pa., USA). Later, individual recipients were examined for fluorescent cells 1 and 3 day-post injection by a fluorescence microscopy (Leica).
Next, to evaluate migration behavior using a zebrafish xenotransplantation assay, an efficient in vivo system that utilizes a small number of cells (100 to 200 cells) to accurately monitor cell migratory activity within a couple of days. Cells (pLKO vs. shPHF8) were labeled with carboxyfluorescein succinimidyl ester (CFSE), an amine-reactive green fluorescent dye, and injected into zebrafish embryos. Migration activity was monitored at 1-day postinjection (1 dpi) and 3 dpi by fluorescence microscopy.

MKN45 cells = test: Zebrafish xenotransplantation migration assay, MKN45; assay type: in vivo; settings: MKN45-injected embryos, immersion in 1 μM at 1 dpi, read at 3 dpi
Procedure: The Tg (fli1: EGFP) zebrafish transgenic strain was purchased from ZIRC (Oregon, USA). The zebrafish embryos, larvae, and adult fish were maintained in the Taiwan Zebrafish Core Facility @ NHRI. At two-day post-fertilization, the embryos were dechorionated and subsequently anesthetized with tricaine (0.04 mg/ml). MKN28 or MKN45 cells were labeled with either CFSE or CM-DiI. Two hundred labeled cells (4.6 nl) were injected into the yolk of two-day old embryo using a Nanoject II Auto-Nanoliter Injector (Drummond Science, Broomall, Pa., USA). Later, individual recipients were examined for fluorescent cells 1 and 3 day-post injection by a fluorescence microscopy (Leica). […]
Next, to evaluate migration behavior using a zebrafish xenotransplantation assay, an efficient in vivo system that utilizes a small number of cells (100 to 200 cells) to accurately monitor cell migratory activity within a couple of days. […] Migration activity was monitored at 1-day postinjection (1 dpi) and 3 dpi by fluorescence microscopy.
Next, to corroborate this finding using a zebrafish xeno-transplantation model. Cells labeled with Vybrant CM-DiI (CM-Dil) (red fluorescence dye) were injected into the embryos of Tg (fli1: EGFP) (fish with green fluorescence in blood vessels), followed by immersion in solutions containing 1 μM m Midostaurin or Bosutinib (a sublethal dose) at 1 dpi. […]

PTEN [1] = test: PTEN protein level by Western blotting in MKN28; assay type: cell-based, human; settings: MG132-treated pLKO MKN28 cells
Source text: FIG. 15. Pharmacological inhibition of PHF8-PKCα-Src-PTEN blocks GC progression in vitro and in vivo. […] Data from FIGS. 15B and 15D are presented as the average of three replicates ±SD **P<0.01 (two-tailed Student's t test). Zebrafish xeno-transplantation assays using Mido or Bosu. […] Cyan, blood vessel. […] Total number of embryos used in vehicle, Mido, and Bosu is shown in the bracket. Data were obtained from three independent studies. **P<0.01 (two-tailed Student's t test).
(§1) For immunoblotting assay, PBS-washed cells collected by scraping were directly lysed in RIPA buffer supplemented with protease inhibitor (Santa Cruz) and PhosSTOP (Sigma). Appropriate amounts of protein were separated on SDS-PAGE and then electrotransferred to PVDF membrane (PALL, Protein Washington, N.Y., USA). After the transfer, each membrane was incubated with appropriate primary antibody overnight at 4° C. and then probed with secondary antibodies conjugated with fluorescence. Odyssey Infrared Imaging System (LI-COR Biosciences, Lincoln, Nebr., USA) was utilized to detect the level of fluorescence. For immunoprecipitation assay, cell pellets were lysed in lysis buffer [50 mM Tris-HCl (pH 7.4), 150 mM NaCl, 0.5% NP40)] containing protease inhibitor (Santa Cruz). […]

PTEN [2] = test: PTEN protein level by Western blotting in MKN45; assay type: cell-based, human; settings: MG132-treated pLKO MKN45 cells
Procedure: FIG. 16. Pharmacological inhibition of PHF8-PKCα-Src-PTEN blocks GC progression in vitro and in vivo. […] Data form FIGS. 16B and 16D are presented as the average of 3 replicates ±SD. *p<0.05, **p<0.01 (two-tailed Student's t test). Zebrafish xenotransplantation assays using Mido or Bosu. Fluorescence microscopic analysis was conducted at 1 dpi and 3 dpi. […] Cyan, blood vessel. Scale bar, 100 μm. […] Total number of embryos used in vehicle, Mido, Bosu is shown in the bracket. Data were obtained from 3 independent studies. *p<0.05 (two-tailed Student's t test).
as §1

COc1cc(Nc2c(C#N)cnc3cc(OCCCN4CCN(C)CC4)c(OC)cc23)c(Cl)cc1Cl [Bosutinib]
embryos with migration behavior (dissemination and invasion) (MKN28 cells): 11.95%
embryos with migration behavior (metastatic activity) (MKN45 cells): 18.08%

CO[C@@H]1[C@H](N(C)C(=O)c2ccccc2)C[C@H]2O[C@]1(C)n1c3ccccc3c3c4c(c5c6ccccc6n2c5c31)C(=O)NC4 [Midostaurin]
embryos with migration behavior (dissemination and invasion) (MKN28 cells): 11%
embryos with migration behavior (metastatic activity) (MKN45 cells): 13.88%

CC(C)C[C@@H](C=O)NC(=O)[C@H](CC(C)C)NC(=O)[C@H](CC(C)C)NC(=O)OCc1ccccc1 [MG132] (Cbz-Leu-Leu-Leu-aldehyde)
PTEN protein level with MG132 treatment (PTEN [1]): rescued
PTEN protein level with MG132 treatment (PTEN [2]): rescued
